{"source": "paper PMC12326981", "about": "“Novel C5α-substituted carbapenems enhance Mycobacterium abscessus killing via selective target binding and reduced hydrolysis by BlaMab” (Antimicrobial Agents and Chemotherapy, 2025)", "key": {"LDT3": {"target": "LDT3 (Mycobacteroides abscessus, UniProt B1MHQ4)", "sequence (B1MHQ4 entry or part of it)": "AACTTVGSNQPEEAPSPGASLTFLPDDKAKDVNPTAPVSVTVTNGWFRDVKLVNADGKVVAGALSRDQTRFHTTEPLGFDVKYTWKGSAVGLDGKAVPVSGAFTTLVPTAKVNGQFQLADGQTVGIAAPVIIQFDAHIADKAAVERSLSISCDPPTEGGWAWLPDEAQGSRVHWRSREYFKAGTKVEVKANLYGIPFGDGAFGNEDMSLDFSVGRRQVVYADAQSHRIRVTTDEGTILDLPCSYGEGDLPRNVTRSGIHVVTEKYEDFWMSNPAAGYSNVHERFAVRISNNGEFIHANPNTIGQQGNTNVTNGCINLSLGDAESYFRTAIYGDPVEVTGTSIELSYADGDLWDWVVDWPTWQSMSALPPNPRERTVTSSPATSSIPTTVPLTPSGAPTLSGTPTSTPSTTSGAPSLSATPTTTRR", "assay": "Mass spectrometric analysis of acyl-enzyme adducts", "format": "binding, Mycobacterium abscessus", "conditions": "LDT3 (44,795); 1:10 molar ratio, 2 h; accuracy ±5 Da", "protocol": "(§1) Truncated sequences of BlaMab (Δ1–30 blaMab), LDT1–5, DDC, PBP B, PonA2, and PBP-lipo (Δ1–41) were synthesized by Celtek Biosciences (Franklin, TN) and cloned into the pET28(a)+ vector. Purification of LDTs and PBPs was carried out as previously described ([15], [16], [20]). Briefly, clones were transformed into Escherichia coli BL21 (DE3), and protein expression was induced with 0.25 mM isopropyl β-d-1-thiogalactopyranoside. Cell pellets were resuspended in buffer containing 50 mM Tris (pH 8.0), 400 mM sodium chloride, and 1 mM Tris(2-carboxyethyl)phosphine hydrochloride and lysed by sonication. After centrifugation, the supernatant was purified using a His Prep FF column and eluted with 500 mM imidazole.\n(§2) The purified proteins were incubated at room temperature with JDB/NA-1-157 and JDB/NA-1-208 at a molar ratio of 1:10 for 2 h. A quadrupole time-of-flight mass spectrometer (Waters Synapt-G2-Si) with electrospray ionization and a Waters Acquity H-Class UPLC system were used to analyze the samples. The liquid chromatography conditions were as follows: a BEH C18 column (1.7 µm, 2.1 × 50 mm) and a mobile phase consisting of 0.1% formic acid in water and 0.1% formic acid in acetonitrile, with a gradient elution from 10% to 90% acetonitrile over 11 min at a flow rate of 0.5 mL/min. The MS settings were optimized with a capillary voltage of 3 kV, a sampling cone voltage of 35 V, and source and desolvation temperatures of 100°C and 500°C, respectively. Gas flow rates were 100 L/h for the cone and 800 L/h for desolvation. The mass accuracy was maintained at ±5 Da."}, "LDT4": {"target": "LDT4 (Mycobacteroides abscessus, UniProt B1MKW1)", "sequence (B1MKW1 entry or part of it)": "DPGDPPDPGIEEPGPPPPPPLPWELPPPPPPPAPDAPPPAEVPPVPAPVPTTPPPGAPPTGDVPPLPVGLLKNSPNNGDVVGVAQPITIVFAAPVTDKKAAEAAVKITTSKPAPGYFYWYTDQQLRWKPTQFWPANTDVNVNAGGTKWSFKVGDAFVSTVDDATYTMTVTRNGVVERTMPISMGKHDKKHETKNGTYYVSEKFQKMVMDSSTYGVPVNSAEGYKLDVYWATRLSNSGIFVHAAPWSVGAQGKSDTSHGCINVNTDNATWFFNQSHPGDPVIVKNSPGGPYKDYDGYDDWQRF", "assay": "Mass spectrometric analysis of acyl-enzyme adducts", "format": "binding, Mycobacterium abscessus", "conditions": "LDT4 (32,567); 1:10 molar ratio, 2 h; accuracy ±5 Da", "protocol": "as §1, §2"}, "Mab ATCC 19977": {"test_system": "Mab ATCC 19977", "assay": "MIC testing against Mab ATCC 19977, single agent and combinations", "format": "cell-based, Mycobacterium abscessus", "protocol": "MICs were determined in duplicate following Clinical Laboratory Standards Institute ([52]) guidelines using Middlebrook 7H9 broth supplemented with 10% (vol/vol) oleic acid-albumin-dextrose-catalase (OADC) and 0.05% (vol/vol) Tween 80, with an inoculum of 5 × 10⁵ CFU/mL. MIC testing of two C5α-substituted carbapenems was conducted both individually and in combination with cephalosporins (cefuroxime and ceftaroline), penicillins (amoxicillin), or BLIs (avibactam or durlobactam + sulbactam). Avibactam, durlobactam, cefuroxime, ceftaroline, and amoxicillin were fixed at concentrations of 4, 1, 2, 4, and 4 mg/L, respectively. […] The MIC was defined as the lowest antibiotic concentration that inhibited visible bacterial growth following 48 h of incubation at 30°C."}, "LDT1": {"target": "LDT1 (Mycobacteroides abscessus, UniProt B1MDC1)", "sequence (B1MDC1 entry or part of it)": "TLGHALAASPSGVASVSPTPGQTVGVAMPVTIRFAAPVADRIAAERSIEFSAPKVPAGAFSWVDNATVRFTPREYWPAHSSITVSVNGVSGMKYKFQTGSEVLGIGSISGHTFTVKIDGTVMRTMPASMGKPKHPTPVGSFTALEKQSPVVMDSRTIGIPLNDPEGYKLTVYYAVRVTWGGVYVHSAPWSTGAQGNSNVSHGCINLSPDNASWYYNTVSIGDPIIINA", "assay": "Apparent inhibition constant (nitrocefin, Dixon plot)", "format": "biochemical, Mycobacterium abscessus", "conditions": "Ki,app", "protocol": "(§3) Steady-state kinetic studies with JDB/NA-1-157 and JDB/NA-1-208 were performed using purified LDTs and PBPs, including LDT1–5, PBP-B, PBP-lipo, and D,D-carboxypeptidase. The assays were conducted on a BioTek Synergy2 multimode reader equipped with Gen5 software. To determine the Michaelis constant (Km^NCF) for each LDT and PBP, a wide range of NCF concentrations was tested, while the enzyme concentrations were fixed. Absorbance changes at 482 nm were monitored over 10 min. Steady-state kinetic parameters (Vmax and Km) were derived by fitting the experimental data to the Henri–Michaelis–Menten equation using nonlinear least-squares regression in GraphPad Prism version 9. The reaction velocity (v) at a given substrate concentration ([S]) was calculated using equation 2: […]\n(§4) The apparent inhibition constants (Ki,app) for JDB/NA-1-157 and JDB/NA-1-208 were determined under the following conditions: an NCF concentration of 5 × Km, fixed concentrations of LDT or PBP enzymes, and varying concentrations of JDB/NA-1-157 and JDB/NA-1-208. Absorbance changes at 482 nm were monitored over a 30 min period for each inhibitor concentration. The data were linearized using a Dixon plot, which involves plotting the reciprocal of the absorbance change (1/ΔA) against the concentrations of JDB/NA-1-157 or JDB/NA-1-208. Apparent Ki,app values were derived from the intersection points on the Dixon plot and were subsequently corrected for substrate concentration and enzyme affinity using equation 3:\n(§5) (3) Ki,app=observed Ki,app/1+[NCF]/Km NCF."}, "PonA2": {"target": "PonA2 (Mycobacteroides abscessus, UniProt B1MFV7)", "sequence (B1MFV7 entry or part of it)": "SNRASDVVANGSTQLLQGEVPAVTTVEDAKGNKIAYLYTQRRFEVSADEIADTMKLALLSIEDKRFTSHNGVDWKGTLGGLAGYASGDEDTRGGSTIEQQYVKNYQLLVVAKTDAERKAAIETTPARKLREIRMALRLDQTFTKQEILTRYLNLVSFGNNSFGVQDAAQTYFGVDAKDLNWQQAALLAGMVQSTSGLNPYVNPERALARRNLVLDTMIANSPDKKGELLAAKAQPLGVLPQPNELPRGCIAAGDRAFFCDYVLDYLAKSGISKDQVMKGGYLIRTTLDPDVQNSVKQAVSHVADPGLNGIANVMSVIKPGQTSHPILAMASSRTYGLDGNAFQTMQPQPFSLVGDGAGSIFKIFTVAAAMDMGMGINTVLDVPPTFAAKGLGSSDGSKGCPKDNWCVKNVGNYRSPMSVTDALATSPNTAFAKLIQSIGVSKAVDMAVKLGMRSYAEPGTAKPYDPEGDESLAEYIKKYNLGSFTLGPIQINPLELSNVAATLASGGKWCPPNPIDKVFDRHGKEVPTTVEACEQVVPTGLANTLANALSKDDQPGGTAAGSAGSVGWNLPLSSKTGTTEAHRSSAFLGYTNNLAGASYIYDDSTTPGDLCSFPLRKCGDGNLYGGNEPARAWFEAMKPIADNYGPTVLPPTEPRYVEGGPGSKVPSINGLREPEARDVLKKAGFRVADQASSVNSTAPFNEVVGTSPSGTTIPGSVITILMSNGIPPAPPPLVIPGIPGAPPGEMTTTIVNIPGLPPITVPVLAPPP", "assay": "Apparent inhibition constant (nitrocefin, Dixon plot)", "format": "biochemical, Mycobacterium abscessus", "conditions": "Ki,app", "protocol": "as §3, §4, §5"}, "LDT2": {"target": "LDT2 (Mycobacteroides abscessus, UniProt B1MMQ4)", "sequence (B1MMQ4 entry or part of it)": "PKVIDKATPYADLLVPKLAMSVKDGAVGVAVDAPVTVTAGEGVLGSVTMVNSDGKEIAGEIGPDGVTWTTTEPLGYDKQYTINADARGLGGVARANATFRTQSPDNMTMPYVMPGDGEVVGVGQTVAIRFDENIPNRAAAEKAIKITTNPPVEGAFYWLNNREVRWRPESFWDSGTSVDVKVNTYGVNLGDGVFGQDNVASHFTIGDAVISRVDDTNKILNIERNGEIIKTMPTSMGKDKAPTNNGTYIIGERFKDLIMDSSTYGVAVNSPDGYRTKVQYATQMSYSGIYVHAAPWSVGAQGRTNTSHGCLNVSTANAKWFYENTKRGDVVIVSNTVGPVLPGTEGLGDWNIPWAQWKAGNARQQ", "assay": "Apparent inhibition constant (nitrocefin, Dixon plot)", "format": "biochemical, Mycobacterium abscessus", "conditions": "Ki,app", "protocol": "as §3, §4, §5"}, "LDT5": {"target": "LDT5 (Mycobacteroides abscessus, UniProt B1MHQ4)", "sequence (B1MHQ4 entry or part of it)": "as the sequence (B1MHQ4 entry or part of it) above", "assay": "Mass spectrometric analysis of acyl-enzyme adducts", "format": "binding, Mycobacterium abscessus", "set-up": "key: (.) indicates no detectable binding", "conditions": "LDT5 (28,220); 1:10 molar ratio, 2 h; accuracy ±5 Da", "protocol": "as §1, §2"}, "DDC": {"test_system": "DDC", "assay": "Mass spectrometric analysis of acyl-enzyme adducts", "format": "binding, Mycobacterium abscessus", "set-up": "key: (.) indicates no detectable binding", "conditions": "DDC (29,750); 1:10 molar ratio, 2 h; accuracy ±5 Da", "protocol": "as §1, §2"}, "BlaMab": {"target": "BlaMab (Mycobacteroides abscessus, UniProt B1MCI3)", "sequence (B1MCI3 entry or part of it)": "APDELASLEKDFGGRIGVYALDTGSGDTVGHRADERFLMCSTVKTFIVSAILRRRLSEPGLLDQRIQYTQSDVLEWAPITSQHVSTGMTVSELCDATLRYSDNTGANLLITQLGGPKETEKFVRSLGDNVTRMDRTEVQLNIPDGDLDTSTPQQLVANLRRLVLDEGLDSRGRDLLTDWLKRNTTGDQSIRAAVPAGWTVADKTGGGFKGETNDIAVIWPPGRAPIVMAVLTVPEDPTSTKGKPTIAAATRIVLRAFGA", "assay": "Mass spectrometric analysis of acyl-enzyme adducts", "format": "binding", "set-up": "key to Mass of protein after incubation (mass shift): (.) indicates no detectable binding", "conditions": "for adduct formation with BlaMab: mass spectrometry", "protocol": "as §1, §2"}, "[1]": {"conditions": "Mycobacteroides abscessus, ATCC19977, 48 h, alone (single agent), read-out: MIC"}}, "note": "Read-outs that look alike come from different tables or passages of the source. Marks after values point to notes of the source that are not given here."}
{"smiles": "CC[C@]12CC(S[C@@H]3CN[C@H](C(=O)N(C)C)C3)=C(C(=O)O)N1C(=O)[C@@H]2[C@@H](C)O", "note": "[JDB/NA-1-208]", "values": [{"measurement": "Mass of protein after incubation (mass shift)", "setting": "LDT3", "value": "45,194 (+397) Da"}, {"measurement": "Mass of protein after incubation (mass shift)", "setting": "LDT4", "value": "32,964 (+397) Da"}, {"measurement": "MIC", "setting": "Mab ATCC 19977; +AMX (4 mg/L) + AVI (4 mg/L)", "value": "≤0.0313", "unit": "µg/mL"}, {"measurement": "MIC", "setting": "Mab ATCC 19977; +AVI (4 mg/L)", "value": 32, "unit": "µg/mL"}, {"measurement": "MIC", "setting": "Mab ATCC 19977; +CFT (4 mg/L)", "value": 4, "unit": "µg/mL"}, {"measurement": "MIC", "setting": "Mab ATCC 19977; +CXM (2 mg/L)", "value": 8, "unit": "µg/mL"}, {"measurement": "MIC", "setting": "Mab ATCC 19977; +DUR (1 mg/L)", "value": 32, "unit": "µg/mL"}, {"measurement": "MIC", "setting": "Mab ATCC 19977; [1]", "value": 32, "unit": "µg/mL"}, {"measurement": "Ki", "setting": "LDT1", "value": 1110, "unit": "nM"}, {"measurement": "Ki", "setting": "PonA2", "value": 352, "unit": "nM"}, {"measurement": "Ki", "setting": "LDT2", "value": 166, "unit": "nM"}, {"measurement": "Mass of protein after incubation (mass shift)", "setting": "LDT5", "value": "28,617 (+397) Da"}, {"measurement": "Mass of protein after incubation (mass shift)", "setting": "DDC", "value": "29,750 (.)"}, {"measurement": "Mass of protein after incubation (mass shift)", "setting": "BlaMab; BlaMab (28,433), 1:10 molar ratio, 2 h, room temperature, accuracy ±5 Da", "value": "28,434 (.)^b"}, {"measurement": "adduct formation with BlaMab", "setting": "BlaMab", "value": "did not form an adduct"}]}
{"smiles": "C[C@@H](O)[C@H]1C(=O)N2C(C(=O)O)=C(S[C@@H]3CN[C@H](C(=O)N(C)C)C3)C[C@]12C", "note": "[JDB/NA-1-157]", "values": [{"measurement": "Mass of protein after incubation (mass shift)", "setting": "LDT3", "value": "45,178 (+383) Da"}, {"measurement": "Mass of protein after incubation (mass shift)", "setting": "LDT4", "value": "32,950 (+383) Da"}, {"measurement": "MIC", "setting": "Mab ATCC 19977; +AMX (4 mg/L) + AVI (4 mg/L)", "value": 0.125, "unit": "µg/mL"}, {"measurement": "MIC", "setting": "Mab ATCC 19977; +AVI (4 mg/L)", "value": 0.5, "unit": "µg/mL"}, {"measurement": "MIC", "setting": "Mab ATCC 19977; +CFT (4 mg/L)", "value": 0.125, "unit": "µg/mL"}, {"measurement": "MIC", "setting": "Mab ATCC 19977; +CXM (2 mg/L)", "value": 0.125, "unit": "µg/mL"}, {"measurement": "MIC", "setting": "Mab ATCC 19977; +DUR (1 mg/L)", "value": 0.25, "unit": "µg/mL"}, {"measurement": "MIC", "setting": "Mab ATCC 19977; [1]", "value": 0.5, "unit": "µg/mL"}, {"measurement": "fold reduction in MIC on combination", "setting": "Mab ATCC 19977; combined with cefuroxime, ceftaroline, or amoxicillin (with avibactam), Table 1, Fig. 3", "value": "≤ 4", "unit": "fold"}, {"measurement": "Ki", "setting": "LDT1", "value": 7980, "unit": "nM"}, {"measurement": "Ki", "setting": "PonA2", "value": 7.82, "unit": "nM"}, {"measurement": "Ki", "setting": "LDT2", "value": 130, "unit": "nM"}, {"measurement": "Mass of protein after incubation (mass shift)", "setting": "LDT5", "value": "28,219 (.)"}, {"measurement": "Mass of protein after incubation (mass shift)", "setting": "DDC", "value": "30,134 (+383) Da"}, {"measurement": "adduct formation with BlaMab", "setting": "BlaMab", "value": "formed a complex"}]}
